Results from patent US10793557B2, “Sting agonist compounds” (Merck Sharp & Dohme Corp., priority 2018, dated 2020).

Assays:
[1] = test system: secretion of interferon-beta from THP1 cells; assay: IFN-β secretion in THP1 cell culture (5 h); assay type: cell-based; conditions: Homo sapiens, THP-1, 5 h, 30 uM cGAMP = 100%; for activation at 30 µM: compound at 30 μM, read-out: % Effect at 30 μM relative to 2′3′-cGAMP; for activation at 3 µM: compound at 3 uM, read-out: % Effect relative to 2′3′-cGAMP (@ 3 uM)
Summary of the method: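 Thawed THP1 cells (0.8×10^6/mL, RPMI with 0.5% FBS) exposed to compounds 1.5–30000 nM (0.3% DMSO) for 5 h at 37 °C. Supernatant IFN-β quantified by AlphaLISA. Percent effect normalised to 30 uM cGAMP and DMSO controls; EC50 from 4-parameter fit.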

full-length WT STING = target: T1, full-length WT STING (Homo sapiens, UniProt Q86WV6, H232R); assay: 3H-cGAMP filtration binding assay (WT STING); conditions: for EC50: competition with tritiated cGAMP, WT STING membrane
T1 construct: AviTag (after gg linker) (C); HRV3C cleavage site (after gs linker) (C); HIS8 (C); made in house; host or cells: Trichoplusia ni (Hi-Five) insect cells infected with baculovirus (virus generated and amplified in Sf21 cells); used as a washed membrane preparation
T1 sequence (Q86WV6 with tags, fused parts or gaps H232R): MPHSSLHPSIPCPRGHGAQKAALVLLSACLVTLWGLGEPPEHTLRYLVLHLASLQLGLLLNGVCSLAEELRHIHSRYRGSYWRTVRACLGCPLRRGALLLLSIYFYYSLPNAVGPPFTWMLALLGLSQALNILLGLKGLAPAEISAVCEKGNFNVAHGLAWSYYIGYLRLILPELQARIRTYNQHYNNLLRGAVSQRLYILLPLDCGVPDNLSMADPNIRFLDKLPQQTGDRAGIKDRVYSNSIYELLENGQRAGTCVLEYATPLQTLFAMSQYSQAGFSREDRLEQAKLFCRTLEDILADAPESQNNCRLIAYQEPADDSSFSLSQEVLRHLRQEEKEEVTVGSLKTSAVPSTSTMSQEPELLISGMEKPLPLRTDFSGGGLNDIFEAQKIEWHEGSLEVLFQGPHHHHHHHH
Summary of the method: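 Competitive filtration binding of [3H]cGAMP (16 nM working stock) to T. ni membranes overexpressing full-length WT human STING, 60 min at RT in PBS. Bound radioactivity counted after GF/B filtration; 10-point 1:3 titration, EC50 from 4-parameter fit after control normalisation.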

full-length HAQ STING = target: T2, full-length HAQ STING (Homo sapiens, UniProt Q86WV6, G230A/H232R/R293Q/R71H); assay: 3H-cGAMP filtration binding assay (HAQ STING); conditions: competition with tritiated cGAMP, HAQ STING membrane
T2 construct: AviTag (after GG linker) (C); HRV3C cleavage site (after GS linker) (C); HIS8 (C); made in house; host or cells: Trichoplusia ni (Hi-Five) insect cells infected with baculovirus (virus generated and amplified in Sf21 cells); used as a washed membrane preparation
T2 sequence (Q86WV6 with tags, fused parts or gaps R71H/G230A/H232R/R293Q): as the sequence (Q86WV6 with tags, fused parts or gaps H232R) above, with R71H, G230A, R293Q counted along it
Summary of the method: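 Hi-Five (T. ni) membranes overexpressing the STING variant (2.2 ug/ml working) preincubated with compound 60 min at RT in PBS, then [3H]cGAMP (8 nM working stock) added for 60 min at RT. Bound radioactivity captured on GF/B filters and counted by scintillation; EC50 from 4-parameter fit of control-normalized activity.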

Structure (SMILES)	EC50 (full-length WT STING) [nM]	EC50 (full-length HAQ STING) [nM]	inhibition at 20 µM (full-length WT STING; at 20,000 nM compound) [%]	inhibition at 2 µM (full-length WT STING; at 2,000 nM compound) [%]	activation at 30 µM [1] [%]	activation at 3 µM [1] [%]
COc1cc2sc(C(=O)C[C@H](C)C(=O)O)cc2c(F)c1OCCCOc1cc2sc(C(=O)C[C@H](C)C(=O)O)cc2nc1OC [Example 167, (S)-4-(6-(3-((2-((S)-3-carboxybutanoyl)-4-fluoro-6-methoxybenzo[b]thiophen-5-yl)oxy)propoxy)-5-methoxythieno[3,2-b]pyridin-2-yl)-2-methyl-4-oxobutanoic acid]	19	4	–	–	66	–
COc1cc2sc(C(=O)CCC(=O)O)cc2c(F)c1OCCCOc1cc2sc(C(=O)C[C@H](C)C(=O)O)cc2nc1OC [Example 168, (S)-4-(6-(3-((2-(3-carboxypropanoyl)-4-fluoro-6-methoxybenzo[b]thiophen-5-yl)oxy)propoxy)-5-methoxythieno[3,2-b]pyridin-2-yl)-2-methyl-4-oxobutanoic acid]	199	13	–	–	102	–
COc1cc2sc(C(=O)C[C@H](C)C(=O)O)cc2cc1OCCCOc1c(OC)cc2sc(C(=O)[C@@H]3CC[C@H]3C(=O)O)cc2c1F [Example 170, trans-2-(5-(3-((2-((S)-3-carboxybutanoyl)-6-methoxybenzo[b]thiophen-5-yl)oxy)propoxy)-4-fluoro-6-methoxybenzo[b]thiophene-2-carbonyl)cyclobutanecarboxylic acid]	3	1	–	–	86	–
COc1cc2cc(C(=O)C[C@H](C)C(=O)O)sc2cc1OCCCOc1c(OC)cc2sc(C(=O)[C@@H]3CC[C@H]3C(=O)O)cc2c1F [Example 171, trans-2-(5-(3-((2-((S)-3-carboxybutanoyl)-5-methoxybenzo[b]thiophen-6-yl)oxy)propoxy)-4-fluoro-6-methoxybenzo[b]thiophene-2-carbonyl)cyclobutanecarboxylic acid]	59	9	–	–	97	–
COc1cc2sc(C(=O)C[C@H](C)C(=O)O)cc2c(Cl)c1OCCCCOc1c(OC)cc2sc(C(=O)C[C@H](C)C(=O)O)cc2c1Cl [Example 172, (2S,2′S)-4,4′-(5,5′-(butane-1,4-diylbis(oxy))bis(4-chloro-6-methoxybenzo[b]thiophene-5,2-diyl))bis(2-methyl-4-oxobutanoic acid)]	15100	454	–	–	–	16
COc1cc2sc(C(=O)CCC(=O)O)cc2nc1CCCOc1c(OC)cc2sc(C(=O)C[C@H](C)C(=O)O)cc2c1F [Example 174, (S)-4-(5-(3-(2-(3-carboxypropanoyl)-6-methoxythieno[3,2-b]pyridin-5-yl)propoxy)-4-fluoro-6-methoxybenzo[b]thiophen-2-yl)-2-methyl-4-oxobutanoic acid]	1	1	–	–	88	–
COc1cc2sc(C(=O)CCC(=O)O)cc2cc1CCCNc1cc2cc(C(=O)C[C@H](C)C(=O)O)sc2cc1OC [Example 177, (S)-4-(5-((3-(2-(3-carboxypropanoyl)-6-methoxybenzo[b]thiophen-5-yl)propyl)amino)-6-methoxybenzo[b]thiophen-2-yl)-2-methyl-4-oxobutanoic acid]	720	68	–	–	80	–
COc1cc2sc(C(=O)C[C@H](C)C(=O)O)cc2cc1OCCCOc1c(OC)cc2sc(C(=O)C[C@H](C)C(=O)NS(=O)(=O)N(C)C)cc2c1F [Example 178, (S)-4-(5-(3-((2-((S)-4-((N,N-Dimethylsulfamoyl)amino)-3-methyl-4-oxobutanoyl)-4-fluoro-6-methoxybenzo[b]thiophen-5-yl)oxy)propoxy)-6-methoxybenzo[b]thiophen-2-yl)-2-methyl-4-oxobutanoic acid]	31	4	–	–	107	–
COc1cc2sc(CC[C@H](C)C(=O)O)cc2c(F)c1OCCCOc1cc2cc(C(=O)C[C@H](C)C(=O)O)sc2cc1O [Example 181, (S)-4-(5-(3-((2-((S)-3-carboxybutyl)-4-fluoro-6-methoxybenzo[b]thiophen-5-yl)oxy)propoxy)-6-hydroxybenzo[b]thiophen-2-yl)-2-methyl-4-oxobutanoic acid]	177	5	–	–	–	104
COc1cc2sc(C(=O)C[C@H](C)C(=O)O)cc2c(Cl)c1OCCCOc1cc2cc(C(=O)C[C@H](C)C(=O)O)sc2cc1O [Example 182, (S)-4-(5-(3-((2-((S)-3-carboxybutanoyl)-4-chloro-6-methoxybenzo[b]thiophen-5-yl)oxy)propoxy)-6-hydroxybenzo[b]thiophen-2-yl)-2-methyl-4-oxobutanoic acid]	2	1	–	–	–	147
COc1cc2sc(C(=O)C[C@H](C)C(=O)O)cc2cc1OCCCOc1c(O)cc2sc(C(=O)C[C@H](C)C(=O)O)cc2c1Cl [Example 183, (S)-4-(5-(3-((2-((S)-3-carboxybutanoyl)-4-chloro-6-hydroxybenzo[b]thiophen-5-yl)oxy)propoxy)-6-methoxybenzo[b]thiophen-2-yl)-2-methyl-4-oxobutanoic acid]	3	1	–	–	–	127

The remaining compounds from weak to strong by EC50 (full-length HAQ STING), led by results:

EC50 (full-length WT STING) [nM]	EC50 (full-length HAQ STING) [nM]	inhibition at 20 µM (full-length WT STING; at 20,000 nM compound) [%]	inhibition at 2 µM (full-length WT STING; at 2,000 nM compound) [%]	Structure (SMILES)	activation at 30 µM [1] [%]	activation at 3 µM [1] [%]
–	4020	46	–	COc1cc2sc(C(=O)CCC#N)cc2cc1CCCc1cc2cc(C(=O)CCC#N)sc2cc1OC [Example 175, 4,4′-(Propane-1,3-diylbis(6-methoxybenzo[b]thiophene-5,2-diyl))bis(4-oxobutanenitrile)]	13	–
–	353	–	29	COc1cc2sc(CC[C@H](C)C(=O)O)cc2cc1OCCCOc1c(O)cc2sc(C(=O)C[C@H](C)C(=O)O)cc2c1Cl [Example 184, (S)-4-(5-(3-((2-((S)-3-carboxybutyl)-6-methoxybenzo[b]thiophen-5-yl)oxy)propoxy)-4-chloro-6-hydroxybenzo[b]thiophen-2-yl)-2-methyl-4-oxobutanoic acid]	–	10
18	1	–	–	COc1cc2sc(C(=O)C[C@H](C)C(=O)O)cc2cc1OCCCOc1c(OC)cc2sc(CC[C@H](C)C(=O)O)cc2c1F [Example 169, (S)-4-(5-(3-((2-((S)-3-carboxybutyl)-4-fluoro-6-methoxybenzo[b]thiophen-5-yl)oxy)propoxy)-6-methoxybenzo[b]thiophen-2-yl)-2-methyl-4-oxobutanoic acid]	64	–
3	1	–	–	COc1cc2sc(C(=O)CCC(=O)O)cc2nc1CCCOc1c(OC)cc2sc(C(=O)CCC(=O)O)cc2c1F [Example 173]	127	–
2	1	–	–	COc1cc2sc(C(=O)C[C@H](C)C(=O)O)cc2cc1NCCCOc1c(OC)cc2sc(C(=O)C[C@H](C)C(=O)O)cc2c1F [Example 176, (S)-4-(5-((3-((2-((S)-3-Carboxybutanoyl)-4-fluoro-6-methoxybenzo [b]thiophen-5-yl)oxy)propyl)amino)-6-methoxybenzo[b]thiophen-2-yl)-2-methyl-4-oxobutanoic acid]	44	–
1	1	–	–	COc1cc2sc(C(=O)C[C@H](C)C(=O)O)cc2cc1OCCCOc1c(OC)cc2sc(C(=O)C[C@H](C)C(=O)NS(C)(=O)=O)cc2c1F [Example 179, (S)-4-(5-(3-((4-fluoro-6-methoxy-2-((S)-3-methyl-4-(methylsulfonamido)-4-oxobutanoyl)-benzo[b]thiophen-5-yl)oxy)propoxy)-6-methoxybenzo[b]thiophen-2-yl)-2-methyl-4-oxobutanoic acid]	79	–
1	1	–	–	COc1cc2sc(C(=O)C[C@H](C)C(=O)O)cc2c(F)c1OCCCOc1cc2cc(C(=O)C[C@H](C)C(=O)O)sc2cc1O [Example 180, (S)-4-(5-(3-((2-((S)-3-Carboxybutanoyl)-4-fluoro-6-methoxybenzo[b]thiophen-5-yl)oxy)propoxy)-6-hydroxybenzo [b]thiophen-2-yl)-2-methyl-4-oxobutanoic acid]	–	121
1	1	–	–	COc1cc2sc(C(=O)C[C@H](C)C(=O)O)cc2c(F)c1OCCCOc1c(O)cc2sc(C(=O)C[C@H](C)C(=O)O)cc2c1Cl [Example 185, (S)-4-(5-(3-((2-((S)-3-carboxybutanoyl)-4-chloro-6-hydroxybenzo[b]thiophen-5-yl)oxy)propoxy)-4-fluoro-6-methoxybenzo[b]thiophen-2-yl)-2-methyl-4-oxobutanoic acid]	–	122
